Where a SMILES comes first, the peptide text is derived from it. Bridges are numbered along the chain shown (N, C = ends). [ ]: non-standard residue; d: D form. The star is where a group is joined. hPhe(3-Cl-4-CF3) = N[C@@H](CCc1ccc(C(F)(F)F)c(Cl)c1)C(=O)O; NPrPhe(4-CF3) = CCCN[C@@H](Cc1ccc(C(F)(F)F)cc1)C(=O)O; NMeGly(cPent) = CN[C@H](C(=O)O)C1CCCC1; Pro(4,4-F2) = O=C(O)[C@@H]1CC(F)(F)CN1; Hyp = O=C(O)[C@@H]1C[C@@H](O)CN1; NMeD = CN[C@@H](CC(=O)O)C(=O)O; NMeL = CN[C@@H](CC(C)C)C(=O)O; Morpholide = C1CN(*)CCO1; Ac5c = NC1(C(=O)O)CCCC1; Aze = O=C(O)[C@@H]1CCN1; Sar = CNCC(=O)O
Legend:
[1] = target: GDP-bound NRAS wild-type protein (Homo sapiens, UniProt P01111); test: Binding to NRAS by surface plasmon resonance (SPR), Single Cycle Kinetics; settings: SPR; for NRAS/KRAS (ratio of KD value for NRAS to KD value for KRAS) / NRAS/KRAS (ratio of KD value with respect to NRAS to KD value with respect to KRAS): GDP-bound NRAS wild-type vs GDP-bound KRAS wild-type
GDP-bound NRAS wild-type protein, sequence (P01111 whole entry): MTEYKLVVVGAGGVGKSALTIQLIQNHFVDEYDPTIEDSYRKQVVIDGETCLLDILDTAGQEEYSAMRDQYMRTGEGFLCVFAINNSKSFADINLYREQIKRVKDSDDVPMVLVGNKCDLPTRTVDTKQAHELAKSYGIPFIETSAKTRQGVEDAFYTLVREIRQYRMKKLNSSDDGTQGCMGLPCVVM

[2] = target: GDP-bound HRAS wild-type protein (Homo sapiens, UniProt P01112); test: Binding to HRAS by surface plasmon resonance (SPR), Single Cycle Kinetics; settings: SPR; for HRAS/KRAS (ratio of KD value for HRAS to KD value for KRAS) / HRAS/KRAS (ratio of KD value with respect to HRAS to KD value with respect to KRAS): GDP-bound HRAS wild-type vs GDP-bound KRAS wild-type
GDP-bound HRAS wild-type protein, sequence (P01112 whole entry): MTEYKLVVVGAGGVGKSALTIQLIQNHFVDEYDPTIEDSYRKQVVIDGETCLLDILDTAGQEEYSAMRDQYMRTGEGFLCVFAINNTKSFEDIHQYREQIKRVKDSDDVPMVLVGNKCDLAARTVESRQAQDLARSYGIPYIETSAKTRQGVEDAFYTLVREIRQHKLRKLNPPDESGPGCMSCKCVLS

With `CCO[C@@H]1C[C@H]2C(=O)NC3(CC(C)(C)C3)C(=O)N(C)[C@@H](C3CCCC3)C(=O)N(CC)[C@H](C(=O)N(C)C)CC(=O)N(C)[C@@H](CC(C)C)C(=O)N[C@@H]([C@@H](C)CC)C(=O)NCC(=O)N(C)[C@H]3C/C=C\CCN(C3=O)[C@@H](Cc3ccc(C(F)(F)F)cc3)C(=O)N(C)CC(=O)N[C@@H](CCc3cc(F)c(C(F)(F)F)c(F)c3)C(=O)N2C1` [PP1773] the “NRAS/KRAS (ratio of KD value for NRAS to KD value for KRAS)” value [1] was “A (a compound having 10 or more and less than 20 is denoted as A)” and the “HRAS/KRAS (ratio of KD value for HRAS to KD value for KRAS)” value [2] was “A (a compound having 10 or more and less than 20 is denoted as A)”.

With `CCCN1C(=O)CN(C)C(=O)[C@@H]2CCN2C(=O)[C@H]([C@@H](C)CC)NC(=O)[C@H](CC(C)C)N(C)C(=O)C[C@@H](C(=O)N2CCOCC2)N(C)C(=O)[C@H](C2CCCC2)N(C)C(=O)C2(CCCC2)NC(=O)[C@@H]2CC(F)(F)CN2C(=O)[C@H](CCc2ccc(C(F)(F)F)c(Cl)c2)NC(=O)CN(C)C(=O)[C@@H]1Cc1ccc(C(F)(F)F)cc1` [PP0403] ([NMeL]I[Aze][Sar][NPrPhe(4-CF3)][Sar][hPhe(3-Cl-4-CF3)][Pro(4,4-F2)][Ac5c][NMeGly(cPent)][NMeD]-Morpholide; lactam N-11) the “NRAS/KRAS (ratio of KD for GDP-bound NRAS wild-type to KD for KRAS)” value ([1]; KD ratio NRAS/KRAS) was “B (a compound having 3 or more and less than 10 is denoted as B)” and the “HRAS/KRAS (ratio of KD for GDP-bound HRAS wild-type to KD for KRAS)” value ([2]; KD ratio HRAS/KRAS) was “B (a compound having 3 or more and less than 10 is denoted as B)”.

For `C#CC[C@H]1C(=O)N[C@@H]([C@@H](C)CC)C(=O)N(C)CC(=O)N(C)[C@H]2C/C=C\CCN(C2=O)[C@@H](Cc2ccc(C(F)(F)F)cc2)C(=O)N(C)CC(=O)N[C@@H](CCc2cc(F)c(C(F)(F)F)c(F)c2)C(=O)N2C[C@H](OCC)C[C@H]2C(=O)NC2(CC(F)(F)C2)C(=O)N(C)[C@@H](C2CCCC2)C(=O)N(C)[C@H](C(=O)N(C)CCC)CC(=O)N1C` [PP1737], the “NRAS/KRAS (ratio of KD value for NRAS to KD value for KRAS)” value [1] was “A (a compound having 10 or more and less than 20 is denoted as A)” and the “HRAS/KRAS (ratio of KD value for HRAS to KD value for KRAS)” value [2] was “A (a compound having 10 or more and less than 20 is denoted as A)”.

In the case of `CCO[C@@H]1C[C@H]2C(=O)NC3(CCCC3)C(=O)N(C)[C@@H](C3CCCC3)C(=O)N(C)[C@H](C(=O)N(C)C)CC(=O)N(C)[C@@H](CC)C(=O)N[C@@H]([C@@H](C)CC)C(=O)N(C)CC(=O)N(C)[C@H]3CC(C)=C(C)CN(C3=O)[C@@H](Cc3ccc(C(F)(F)F)cc3)C(=O)N(C)CC(=O)N[C@@H](CCc3cc(F)c(C(F)(F)F)c(F)c3)C(=O)N2C1` [PP1050], the “NRAS/KRAS (ratio of KD value with respect to NRAS to KD value with respect to KRAS)” value [1] is reported as “C (A compound having a KD ratio of 0.1 or more and less than 3 is denoted as C)” and the “HRAS/KRAS (ratio of KD value with respect to HRAS to KD value with respect to KRAS)” value [2] is reported as “C (A compound having a KD ratio of 0.1 or more and less than 3 is denoted as C)”.

With `CCO[C@@H]1C[C@H]2C(=O)NC3(CCCC3)C(=O)N(C)[C@@H](C3CCCC3)C(=O)N(C)[C@H](C(=O)N(C)C)CC(=O)N(C)[C@@H](CC(C)C)C(=O)N[C@@H]([C@@H](C)CC)C(=O)N(C)CC(=O)N(C)[C@H]3CC(C)=C(C)CN(C3=O)[C@@H](Cc3ccc(C(F)(F)F)cc3)C(=O)N(C)CC(=O)N[C@@H](CCc3cc(F)c(C(F)(F)F)c(F)c3)C(=O)N2C1` [PP1045] the “NRAS/KRAS (ratio of KD value with respect to NRAS to KD value with respect to KRAS)” value [1] was “C (A compound having a KD ratio of 0.1 or more and less than 3 is denoted as C)” and the “HRAS/KRAS (ratio of KD value with respect to HRAS to KD value with respect to KRAS)” value [2] was “C (A compound having a KD ratio of 0.1 or more and less than 3 is denoted as C)”.

With `CC[C@H](C)[C@@H]1NC(=O)[C@H](CC(C)C)N(C)C(=O)C[C@@H](C(=O)N2CCOCC2)N(C)C(=O)[C@H](C2CCCC2)N(C)C(=O)C2(CCCC2)NC(=O)[C@@H]2CCCN2C(=O)[C@H](CCc2cc(F)c(C(F)(F)F)c(F)c2)NC(=O)CN(C)C(=O)[C@H](Cc2ccc(C(F)(F)F)cc2)N2CCCC[C@@H](C2=O)N(C)C(=O)[C@@H]2CCCN2C1=O` [PP0547] the “NRAS/KRAS (ratio of KD value with respect to GDP-bound NRAS wild-type protein to KD value with respect to KRAS)” value ([1]; KD ratio NRAS/KRAS) was “B (a compound having 3 or more and less than 10 is denoted as B)” and the “HRAS/KRAS (ratio of KD value with respect to GDP-bound HRAS wild-type protein to KD value with respect to KRAS)” value ([2]; KD ratio HRAS/KRAS) was “B (a compound having 3 or more and less than 10 is denoted as B)”.

With `CCCN1C(=O)CN(C)C(=O)CNC(=O)[C@H]([C@@H](C)CC)NC(=O)[C@H](CC(C)C)N(C)C(=O)C[C@@H](C(=O)N2CCOCC2)N(C)C(=O)[C@H](C2CCCC2)N(C)C(=O)C2(CCCC2)NC(=O)[C@@H]2C[C@@H](OCC)CN2C(=O)[C@H](CCc2ccc(C(F)(F)F)c(Cl)c2)NC(=O)CN(C)C(=O)[C@@H]1Cc1ccc(C(F)(F)F)cc1` [PP0396] ([NMeL]IG[Sar][NPrPhe(4-CF3)][Sar][hPhe(3-Cl-4-CF3)][Hyp](Et)[Ac5c][NMeGly(cPent)][NMeD]-Morpholide; lactam N-11) the “NRAS/KRAS (ratio of KD for GDP-bound NRAS wild-type to KD for KRAS)” value ([1]; KD ratio NRAS/KRAS) was “B (a compound having 3 or more and less than 10 is denoted as B)” and the “HRAS/KRAS (ratio of KD for GDP-bound HRAS wild-type to KD for KRAS)” value ([2]; KD ratio HRAS/KRAS) was “C (A compound having a KD ratio of 0.1 or more and less than 3 is denoted as C)”.

Reference: patent US20250230193A1, “CYCLIC COMPOUND HAVING SELECTIVE KRAS INHIBITORY EFFECT ON HRAS AND NRAS” (CHUGAI SEIYAKU KABUSHIKI KAISHA, priority 2022, published 2025)
